Results reported in article PMC10065799, “High-throughput profiling of sequence recognition by tyrosine kinases and SH2 domains using bacterial peptide display” (eLife, 2023).
Each block holds one sequence with its values, some of them ahead of it.

Assays:
Assay in all cases: pTyr-Var library bacterial peptide display kinase screen (enrichment scores)
c-Src kinase domain = c-Src kinase domain (Homo sapiens, UniProt P12931); assay type: biochemical; conditions: sheet "Src";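 further: log2 fold change in enrichment of variant over reference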
Fer kinase domain = assay type: biochemical, mouse; conditions: sheet "Fer"
c-Abl kinase domain = molecular target: T1, c-Abl kinase domain (Mus musculus, UniProt P00520); assay type: biochemical;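 further: log2 fold change in enrichment of variant over reference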
T1 sequence (P00520 242-493 limits assumed): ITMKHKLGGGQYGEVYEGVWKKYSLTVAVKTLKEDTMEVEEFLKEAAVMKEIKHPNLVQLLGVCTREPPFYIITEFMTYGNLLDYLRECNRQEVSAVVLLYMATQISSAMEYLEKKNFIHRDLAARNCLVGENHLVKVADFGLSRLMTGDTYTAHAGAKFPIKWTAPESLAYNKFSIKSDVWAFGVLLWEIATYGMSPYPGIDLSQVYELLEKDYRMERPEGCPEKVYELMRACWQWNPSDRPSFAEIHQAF

EPHB1 kinase domain = assay type: biochemical, human; conditions: for Screen: sheet EPHB1, effect of the variant peptide relative to its reference peptide in the pTyr-Var library screen (enrichment scores)
[1] = effect of the variant peptide relative to its reference peptide in the pTyr-Var library screen
[2] = value of the variant peptide against its reference peptide in the pTyr-Var library screen with Fer
[3] = fig5-data2, sheet "Abl", Screen for the variant/reference peptide pair, pTyr-Var library
[4] = variant peptide versus its reference peptide in the pTyr-Var library screen
[5] = sheet "Abl", effect of variant peptide relative to its reference peptide in pTyr-Var library screen (enrichment)

Sequence: EWQQIYTFDSG [JUP_Y20_T19I_YF]
Screen (c-Src kinase domain; [1]): 0.7952
Screen (Fer kinase domain; [2]): 3.242

Sequence: CKLVDYDSARH [BIN1_Y150_R145C]
Screen (c-Abl kinase domain; [3]): 0.9945

Sequence: RTVDVYFGPQM [KIRREL3_Y332_R336Q]
Screen (c-Src kinase domain; [1]): 1.347

Sequence: REGAKYVSHGT [ASS1_Y113_A118T]
Screen (c-Abl kinase domain; [3]): 0.5424

Sequence: VQQVIYATRAL [MYH7_Y422_G425R]
Screen (c-Src kinase domain; [4]): 0.27
Screen (c-Abl kinase domain; [3]): -0.009809

Sequence: PMDGEYFTLQI [TP53_Y327_L323M]
Screen (c-Src kinase domain; [4]): 0.4461
Screen (Fer kinase domain; variant peptide relative to its reference peptide, pTyr-Var library screen enrichment): 0.4582

Sequence: CVRTIYTIDGS [DCLK2_Y124_G119C]
Screen (c-Src kinase domain; [1]): 0.3247

Sequence: PLDGEYFTRQI [TP53_Y327_L330R]
Screen (c-Src kinase domain; [4]): -2.245
Screen (c-Abl kinase domain; [5]): 1.752

Sequence: LTDTVYSSSSA [OR4C12_Y71_I67T]
Screen (c-Src kinase domain; [4]): -0.5241
Screen (Fer kinase domain; [2]): 0.3207

Sequence: RPIEVYLCPEE [E2F3_Y349_G344R]
Screen (c-Src kinase domain; [1]): 1.834

Sequence: ARSHIYTLASC [MEFV_Y741_F743L]
Screen (c-Src kinase domain; [1]): 0.6764

Sequence: PAVGIYNGNIN [CDCP1_Y707_D709G]
Screen (c-Src kinase domain; [1]): 0.5447

Sequence: ELTSVYGSRAR [SENP1_Y349_D350G]
Screen (c-Src kinase domain; [4]): 0.9781

Sequence: NDPMEYAKQHG [ASS1_Y163_L160P]
Screen (c-Abl kinase domain; [3]): 0.6452

Sequence: CEAMEYPESKQ [BTK_Y511_L512P]
Screen (c-Abl kinase domain; [3]): -1.088

Sequence: VNFGAYINDFN [GLB1_Y488_K493N_YF]
Screen (c-Abl kinase domain; [3]): 0.7194

Sequence: PFRFIYMAVQH [PTPN11_Y515_Q510P_YF]
Screen (c-Src kinase domain; [4]): -0.7023

Sequence: PRRRFYVVACD [RNASE3_Y134_G130R]
Screen (c-Src kinase domain; [4]): -1.377

Sequence: EKKKFYDAKIE [CASP5_Y104_T106A_YF]
Screen (c-Abl kinase domain; [3]): 2.357

Sequence: DFFDLYGGEKK [PTPN11_Y66_F71K_YF]
Screen (c-Src kinase domain; [4]): -0.3154
Screen (c-Abl kinase domain; [3]): 0.6551

Sequence: PEADKYHLTFA [FGG_Y300_R301H_YF]
Screen (EPHB1 kinase domain): 0.9471

Sequence: EGWQVYRLGTR [MISP_Y95_A99T]
Screen (c-Src kinase domain; [1]): -0.2875

Sequence: EVASVYESFQP [MAVS_Y92_Q93E_YF]
Screen (c-Src kinase domain; [1]): 0.01447
Screen (Fer kinase domain; [2]): 1.389

Sequence: RDSQIYAVDFE [MRPS34_Y34_L33I_YF]
Screen (c-Src kinase domain; [1]): 2.537

Sequence: FAFQLYDLDPD [CHP2_Y123_R127P_YF]
Screen (c-Src kinase domain; [1]): 0.6897

Sequence: PFSNSYENSLI [EPOR_Y489_P488S_YF]
Screen (Fer kinase domain; [2]): -1.474

Sequence: GRIHSYRGHLW [VHL_Y112_R107G]
Screen (c-Src kinase domain; [4]): -3.383
Screen (variant relative to reference peptide, measured in the pTyr-Var library screen) (EPHB1 kinase domain; sheet "EPHB1", variant seq vs reference seq, bacterial peptide display enrichment): -1.934

Sequence: PLDGEYLTLQI [TP53_Y327_F328L]
Screen (c-Src kinase domain; [4]): -1.75

Sequence: LGKGSYAKVRS [TSSK2_Y23_K27R]
Screen (c-Src kinase domain; [4]): -0.7681
Screen (c-Abl kinase domain; [5]): 0.9991

Sequence: IRRIAYEFVEM [ADA_Y84_K80R]
Screen (Fer kinase domain; [2]): -0.04574

Sequence: HISGVYKLPPD [ANGPTL7_Y145_R140H]
Screen (c-Src kinase domain; [1]): 1.474

Sequence: RNDRVYQPLRD [CD3D_Y149_Q147R]
Screen (c-Src kinase domain; [1]): -1.537

Sequence: NHFKIYNPCAE [PTEN_Y68_L70P_YF]
Screen (c-Src kinase domain; [4]): -2.716
Screen (c-Abl kinase domain; [3]): 0.7094

Sequence: FSGKAYADEEQ [CRIM1_Y826_R831Q]
Screen (c-Abl kinase domain; [3]): 0.3767

Sequence: KGEDFYCVTFH [FHL1_Y149_C153Y_YF]
Screen (c-Abl kinase domain; [3]): -1.856
Screen (Fer kinase domain; [2]): 1.626

The remaining lines, values ahead:

Screen (c-Abl kinase domain; [3]): 0.6619
Sequence: GGPAEYLRRAS [PKLR_Y38_G37E]

Screen (c-Abl kinase domain; [5]): 1.685
Sequence: EKGEEYGGGGG [TUBA1A_Y451_E447K]

Screen (c-Abl kinase domain; [3]): -1.654
Sequence: QHVPDYRQNGF [PCDHGB6_Y889_V893G_YF]

Screen (c-Abl kinase domain; [3]): -0.1463
Sequence: DQVEQYNKELE [LMNA_Y259_K260N]

Screen (c-Abl kinase domain; [3]): 0.04202
Sequence: IMITGYLLLFR [INSR_Y87_D86G]

Screen (c-Abl kinase domain; [3]): -0.477
Sequence: SKNSKYNAGST [PSEN1_Y315_E318G]

Screen (c-Abl kinase domain; [5]): -1.807
Sequence: ISHVAYLVLGK [TRRAP_Y892_R893L]

Screen (Fer kinase domain; [2]): 1.727
Sequence: CLNAIYQNNLT [GSR_Y158_R153C]

Screen (c-Abl kinase domain; [3]): 0.3032
Sequence: CGTPDYIAREI [PRKCG_Y521_P524R]

Screen (c-Abl kinase domain; [3]): -1.016
Sequence: FFRNVYHLASV [RBL1_Y796_K794N_YF]

Screen (EPHB1 kinase domain): 0.9985
Sequence: QEGPEYWDLET [HLA-A_Y83_Q86L]

Screen (c-Abl kinase domain; [3]): 1.153
Sequence: QRRLVYFERGA [RYR1_Y245_G248R_YF]

Screen (c-Abl kinase domain; [5]): -0.62
Sequence: SGLDSYVRSLP [TRAPPC1_Y133_R129G]

Screen (c-Abl kinase domain; [5]): 0.6095
Sequence: SVVVPYEPPEL [TP53_Y220_V225L]

Screen (c-Abl kinase domain; [3]): 0.3272
Sequence: VFAANYFKLLG [ROR2_Y645_D644N_YF]

Screen (EPHB1 kinase domain): 0.9285
Sequence: CPFNLYAEQFS [HGD_Y40_L44F_YF]

Screen (c-Abl kinase domain; [5]): -1.867
Sequence: WANPEYTGGFK [TTN_Y22309_K22306N]

Screen (c-Abl kinase domain; [3]): -1.28
Sequence: TGQEDYDRLRP [RAC1_Y64_A59T]
